Reference: patent publication US9371336B2, “Compounds for treating spinal muscular atrophy” (PTC Therapeutics Inc., priority 2012, dated 2016)

Key:
[1] = tested on: SMN2 minigene mRNA (SMN2-A minigene construct); test: SMN2 minigene mRNA splicing RT-qPCR assay in cultured cells; assay type: cell-based, human; settings: Homo sapiens, HEK293-H; HEK293H cells stably transfected with SMN2-A minigene, 24 hours, 7-point concentration data; concentration giving 1.5-fold SMN2 full length mRNA relative to vehicle-treated cells; read-out: EC1.5x for production of full length SMN2 mRNA
How it was run: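 Full-length SMN2 minigene mRNA, measured by exon 7/luciferase-specific RT-qPCR that excludes endogenous SMN1/SMN2, was normalized to GAPDH and expressed relative to vehicle-treated cells via modified ΔΔCt. Stably transfected HEK293H cells received compound (7-point, 3.16-fold series, duplicates) for 24 h at 37 °C.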

Smn protein = Smn protein assay (HTRF) in cultured cells (SMA patient fibroblasts GM03813); assay type: cell-based, human; settings: 48 hours; for EC1.5x for Smn protein expression: SMA patient fibroblast cells (GM03813), HTRF, 7-point concentration data, concentration producing 1.5 times Smn protein vs DMSO vehicle control; for maximum fold (Fold) increase of Smn protein: SMA patient fibroblast cells, 7-point concentration curve, relative to vehicle control
How it was run: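 SMA patient fibroblasts (GM03813) were treated 48 h at 37° C with a 7-point, 3.16-fold compound series in triplicate, then lysed in RIPA. Smn was read by HTRF (anti-SMN d2/kryptate, 665/620 nm ratio). ΔF versus blank was divided by vehicle ΔF to give fold Smn increase.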

Row | Structure (SMILES) | EC (1.5-fold) [1] [µM] | EC1.5x for Smn protein expression (Smn protein) | maximum fold (Fold) increase of Smn protein (Smn protein) | melting point [°C]
1 | CN1CCN(c2ccc3cc(-c4cn5cccnc5n4)c(=O)oc3n2)CC1 [Cpd 117, 3-(imidazo[1,2-a]pyrimidin-2-yl)-7-(4-methylpiperazin-1-yl)-2H-pyrano[2,3-b]pyridin-2-one] | 0.1 to 0.3 | *** (an EC1.5× between >0.3 μM and ≦1 μM is indicated by three stars (***)) | **** (a fold increase between >1.5 and ≦1.65 is indicated by four stars (****)) | 266 to 269
2 | C[C@@H]1CN(c2ccc3cc(-c4cn5cccnc5n4)c(=O)oc3n2)C[C@H](C)N1C [Cpd 118, 3-(imidazo[1,2-a]pyrimidin-2-yl)-7-[(3R,5S)-3,4,5-trimethylpiperazin-1-yl]-2H-pyrano[2,3-b]pyridin-2-one] | 0.1 to 0.3 | ** (an EC1.5× between >1 and ≦3 μM is indicated by two stars (**)) | *** (a fold increase between >1.35 and ≦1.5 is indicated by three stars (***)) | 286 to 289
3 | C[C@@H]1CN(c2ccc3cc(-c4cn5cccc(F)c5n4)c(=O)oc3n2)C[C@H](C)N1C [Cpd 119, 3-(8-fluoroimidazo[1,2-a]pyridin-2-yl)-7-[(3R,5 S)-3,4,5-trimethylpiperazin-1-yl]-2H-pyrano[2,3-b]pyridin-2-one] | ≤ 0.1 | **** (an EC1.5×≦0.3 μM is indicated by four stars (****)) | **** (a fold increase between >1.5 and ≦1.65 is indicated by four stars (****)) | 242 to 245
4 | C[C@@H]1CN(c2ccc3cc(-c4cn5cccc(Cl)c5n4)c(=O)oc3n2)C[C@H](C)N1C [Cpd 120, 3-(8-chloroimidazo[1,2-a]pyridin-2-yl)-7-[(3R,5S)-3,4,5-trimethylpiperazin-1-yl]-2H-pyrano[2,3-b]pyridin-2-one] | ≤ 0.1 | – | *** (a fold increase between >1.35 and ≦1.5 is indicated by three stars (***)) | 241 to 245
5 | C[C@@H]1CN(c2ccc3cc(-c4cn5ccccc5n4)c(=O)oc3n2)C[C@H](C)N1C [Cpd 121, 3-(imidazo[1,2-a]pyridin-2-yl)-7-[(3R,5S)-3,4,5-trimethylpiperazin-1-yl]-2H-pyrano[2,3-b]pyridin-2-one] | ≤ 0.1 | * (An EC1.5× for Smn protein expression between >3 μM and ≦10 μM is indicated by one star (*)) | *** (a fold increase between >1.35 and ≦1.5 is indicated by three stars (***)) | 242 to 246
6 | Cc1cc(F)c2nc(-c3cc4ccc(N5C[C@H](C)NC[C@H]5C)nc4oc3=O)cn2c1 [Cpd 122, 7-[(2R,5S)-2,5-dimethylpiperazin-1-yl]-3-(8-fluoro-6-methylimidazo[1,2-a]pyridin-2-yl)-2H-pyrano[2,3-b]pyridin-2-one] | ≤ 0.1 | **** (an EC1.5×≦0.3 μM is indicated by four stars (****)) | **** (a fold increase between >1.5 and ≦1.65 is indicated by four stars (****)) | 195 to 198
7 | Cc1cn2cc(-c3cc4ccc(N5C[C@H](C)N(C)C[C@H]5C)nc4oc3=O)nc2c(C)n1 [Cpd 123, 3-(6,8-dimethylimidazo[1,2-a]pyrazin-2-yl)-7-[(2R,5S)-2,4,5-trimethylpiperazin-1-yl]-2H-pyran[2,3-b]pyridin-2-one] | 0.1 to 0.3 | *** (an EC1.5× between >0.3 μM and ≦1 μM is indicated by three stars (***)) | **** (a fold increase between >1.5 and ≦1.65 is indicated by four stars (****)) | 234 to 236
8 | Cc1ccc2nc(-c3cc4ccc(N5C[C@@H]6C[C@H]5CN6C)nc4oc3=O)cn2c1 [Cpd 125, 7-[(1S,4S)-5-methyl-2,5-diazabicyclo[2.2.1]hept-2-yl]-3-(6-methylimidazo[1,2-a]pyridin-2-yl)-2H-pyrano[2,3-b]pyridin-2-one] | 0.1 to 0.3 | **** (an EC1.5×≦0.3 μM is indicated by four stars (****)) | ***** (a fold increase >1.65 is indicated by five stars (*****)) | 211 to 213
9 | CCN1CCCN(c2ccc3cc(-c4cn5cccnc5n4)c(=O)oc3n2)CC1 [Cpd 126, 7-(4-ethyl-1,4-diazepan-1-yl)-3-(imidazo[1,2-a]pyrimidin-2-yl)-2H-pyrano[2,3-b]pyridin-2-one] | 0.1 to 0.3 | – | *** (a fold increase between >1.35 and ≦1.5 is indicated by three stars (***)) | 271 to 273
10 | CCN1CCCN(c2ccc3cc(-c4cn5ccccc5n4)c(=O)oc3n2)CC1 [Cpd 127, 7-(4-ethyl-1,4-diazepan-1-yl)-3-(imidazo[1,2-a]pyridin-2-yl)-2H-pyrano[2,3-b]pyridin-2-one] | ≤ 0.1 | *** (an EC1.5× between >0.3 μM and ≦1 μM is indicated by three stars (***)) | **** (a fold increase between >1.5 and ≦1.65 is indicated by four stars (****)) | 285 to 288
11 | CCN1CCCN(c2ccc3cc(-c4cn5cc(C)nc(C)c5n4)c(=O)oc3n2)CC1 [Cpd 128, 3-(6,8-dimethylimidazo[1,2-a]pyrazin-2-yl)-7-(4-ethyl-1,4-diazepan-1-yl)-2H-pyrano[2,3-b]pyridin-2-one] | ≤ 0.1 | **** (an EC1.5×≦0.3 μM is indicated by four stars (****)) | ***** (a fold increase >1.65 is indicated by five stars (*****)) | 289 to 291
12 | CCN1[C@H](C)CN(c2ccc3cc(-c4cn5ccccc5n4)c(=O)oc3n2)C[C@@H]1C [Cpd 129, 7-[(3R,5S)-4-ethyl-3,5-dimethylpiperazin-1-yl]-3-(imidazo[1,2-a]pyridin-2-yl)-2H-pyrano[2,3-b]pyridin-2-one] | ≤ 0.1 | **** (an EC1.5×≦0.3 μM is indicated by four stars (****)) | ***** (a fold increase >1.65 is indicated by five stars (*****)) | 281 to 284
13 | CCN1CCN(c2ccc3cc(-c4cn5cc(C)ccc5n4)c(=O)oc3n2)CC1 [Cpd 130, 7-(4-ethylpiperazin-1-yl)-3-(6-methylimidazo[1,2-a]pyridin-2-yl)-2H-pyrano[2,3-b]pyridin-2-one] | 0.1 to 0.3 | * (An EC1.5× for Smn protein expression between >3 μM and ≦10 μM is indicated by one star (*)) | *** (a fold increase between >1.35 and ≦1.5 is indicated by three stars (***)) | 235 to 237
14 | CCN1CCN(c2ccc3cc(-c4cn5ccc(C)cc5n4)c(=O)oc3n2)CC1 [Cpd 131, 7-(4-ethylpiperazin-1-yl)-3-(7-methylimidazo[1,2-a]pyridin-2-yl)-2H-pyrano[2,3-b]pyridin-2-one] | 0.1 to 0.3 | – | *** (a fold increase between >1.35 and ≦1.5 is indicated by three stars (***)) | 258 to 261
15 | CCN1CCN(c2ccc3cc(-c4cn5cccc(F)c5n4)c(=O)oc3n2)CC1 [Cpd 132, 7-(4-ethylpiperazin-1-yl)-3-(8-fluoroimidazo[1,2-a]pyridin-2-yl)-2H-pyrano[2,3-b]pyridin-2-one] | 0.1 to 0.3 | – | ** (a fold increase between >1.2 and ≦1.35 is indicated by two stars (**)) | 203 to 206
16 | CCN1CCN(c2ccc3cc(-c4cn5cccc(Cl)c5n4)c(=O)oc3n2)CC1 [Cpd 133, 3-(8-chloroimidazo[1,2-a]pyridin-2-yl)-7-(4-ethylpiperazin-1-yl)-2H-pyrano[2,3-b]pyridin-2-one] | ≤ 0.1 | *** (an EC1.5× between >0.3 μM and ≦1 μM is indicated by three stars (***)) | *** (a fold increase between >1.35 and ≦1.5 is indicated by three stars (***)) | 218 to 221
17 | CCN1CCN(c2ccc3cc(-c4cn5cc(C)cc(F)c5n4)c(=O)oc3n2)CC1 [Cpd 134, 7-(4-ethylpiperazin-1-yl)-3-(8-fluoro-6-methylimidazo[1,2-a]pyridin-2-yl)-2H-pyrano[2,3-b]pyridin-2-one] | 0.1 to 0.3 | * (An EC1.5× for Smn protein expression between >3 μM and ≦10 μM is indicated by one star (*)) | *** (a fold increase between >1.35 and ≦1.5 is indicated by three stars (***)) | 238 to 242
18 | CCN1CCN(c2ccc3cc(-c4cn5cc(C)cc(F)c5n4)c(=O)oc3n2)C[C@@H]1C [Cpd 137, 7-[(3S)-4-ethyl-3-methylpiperazin-1-yl]-3-(8-fluoro-6-methylimidazo[1,2-a]pyridin-2-yl)-2H-pyrano[2,3-b]pyridin-2-one] | ≤ 0.1 | *** (an EC1.5× between >0.3 μM and ≦1 μM is indicated by three stars (***)) | **** (a fold increase between >1.5 and ≦1.65 is indicated by four stars (****)) | 239 to 243
